Earlier results on 1 molecule are cited in patent publication JP2007126392A, “タンパク質のリフォールディング剤” (Sanyo Chemical Industries Ltd, priority 2005, dated 2007).

The conditions of this data set: first acid dissociation constant (pKa1) where several protons dissociate.

A word on the pKa: it is the pH at which an ionisable group is half protonated. On to `O[Si](O)(O)O` [ケイ酸], for which the pKa is on record as 9.86.
